The values that follow are results of earlier work, collected in patent US20050064031A1, “Combination contraceptive, kits that contain the latter, and a method that uses the latter” (priority 1995, published 2005).

The subject of the series is breast tumors. The conditions noted are these: rats treated before the administration of a carcinogen.

On to `CN(C)c1ccc([C@H]2C[C@]3(C)[C@@H](CC[C@]3(O)CCCO)[C@@H]3CCC4=CC(=O)CCC4=C32)cc1` [onapristone], for which the “development of breast tumors” value is “can be inhibited”.
